As a reminder, the IC50 is the concentration that gives 50% inhibition.

IC50 data for 22 compounds are collected here from patent US10508085B2, “Compounds and methods for IDO and TDO modulation, and indications therefor” (Plexxikon Inc., priority 2016, dated 2019).

A value given as a limit tells only on which side of the number the result lay.

Assay [1] deals with T1, Human Indoleamine 2,3-dioxygenase (IDO) (Homo sapiens, UniProt P14902).
T1 construct: His tag (N); made in house; host or cells: E. coli
Nature of the assay: Human IDO enzymatic assay (kynurenine level). The note with it: 6 nM IDO, 10 μM L-Trp; geometric mean; read-out: IDO1 GMean: IC50 (μM) (Biochemical Assay). The class given is biochemical. Summed up: (§1)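 N-terminally His-tagged enzymes expressed in E. coli were run in 50 mM sodium phosphate pH 6.5 with 10 mM ascorbate, catalase and Tween 20. IDO: 6 nM enzyme, 10 μM L-Trp, 5 μM methylene blue, 20 min RT. TDO: 1 nM enzyme, 350 μM L-Trp, 0.4 μM methylene blue, 70 min RT.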

The target of assay [2] is T2, Human Tryptophan 2,3-dioxygenase (TDO) (Homo sapiens, UniProt P48775).
T2 construct: His tag (N); made in house; host or cells: E. coli
Nature of the assay: Human TDO enzymatic assay (kynurenine level). The class given is biochemical. The settings on record: 1 nM TDO, 350 μM L-Trp; geometric mean; read-out: TDO GMean: IC50 (μM) (Biochemical Assay). An outline of the steps: as §1

Assay [3] concerns the target T3, human IDO (IDO1-expressing HEK293 cells) (Homo sapiens, UniProt P14902).
T3 construct: expressed in transfected cells
In words: Cell based kynurenine assay, IDO1-expressing HEK293 cell clones. The note with it: IDO1-expressing HEK293 cells, 24 hours incubation; geometric mean; read-out: HEK293 IDO1 Kynurenine GMean IC50 (μM) (Cellular Assay). An outline of the steps: (§2)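 HEK293 stable clones (hIDO1 or hTDO, CMV-driven; G418-selected); 2.5×10^4 cells/well; compound serial dilution, 24 h, 37 °C, 5% CO2; supernatant kynurenine; IC50 by nonlinear fit.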

Assay [4] deals with T4, human TDO (TDO-expressing HEK293 cells) (Homo sapiens, UniProt P48775).
T4 construct: expressed in transfected cells
In words: Cell based kynurenine assay, TDO-expressing HEK293 cell clones. The note with it: TDO-expressing HEK293 cells, 24 hours incubation; geometric mean; read-out: HEK293 TDO Kynurenine GMean IC50 (μM) (Cellular Assay). An outline of the steps:
as §2

T1 sequence (P14902 whole entry): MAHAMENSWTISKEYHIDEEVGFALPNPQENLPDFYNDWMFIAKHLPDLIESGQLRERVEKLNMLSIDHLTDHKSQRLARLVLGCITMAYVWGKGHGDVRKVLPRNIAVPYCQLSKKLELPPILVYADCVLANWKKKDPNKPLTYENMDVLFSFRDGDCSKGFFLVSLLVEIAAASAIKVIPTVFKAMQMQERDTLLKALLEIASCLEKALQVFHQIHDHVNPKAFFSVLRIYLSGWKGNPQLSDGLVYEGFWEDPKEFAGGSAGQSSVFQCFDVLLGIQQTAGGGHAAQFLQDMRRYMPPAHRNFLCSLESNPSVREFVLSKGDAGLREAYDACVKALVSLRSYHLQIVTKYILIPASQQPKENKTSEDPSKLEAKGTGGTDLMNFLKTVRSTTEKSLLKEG
T3 sequence (P14902 whole entry): as above
T4 sequence (P48775 whole entry): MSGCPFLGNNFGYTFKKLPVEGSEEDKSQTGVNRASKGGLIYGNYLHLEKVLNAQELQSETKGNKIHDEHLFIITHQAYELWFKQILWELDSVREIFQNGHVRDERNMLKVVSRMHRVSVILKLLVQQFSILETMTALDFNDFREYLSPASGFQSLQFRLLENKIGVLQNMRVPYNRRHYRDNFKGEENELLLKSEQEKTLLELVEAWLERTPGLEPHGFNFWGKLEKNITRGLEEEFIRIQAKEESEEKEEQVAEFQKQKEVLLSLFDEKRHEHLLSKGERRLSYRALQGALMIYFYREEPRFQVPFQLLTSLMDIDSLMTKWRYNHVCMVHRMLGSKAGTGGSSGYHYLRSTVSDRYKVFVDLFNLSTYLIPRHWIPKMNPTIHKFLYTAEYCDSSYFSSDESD
T2 sequence (P48775 whole entry): as above

Regarding `O=C(Nc1ccc(F)cc1)N1CCC(C(F)(F)C(O)c2cc(Cl)cc3cn[nH]c23)CC1` (stereo not shown) [Compound P-0151, 4-(2-(5-chloro-1H-indazol-7-yl)-1,1-difluoro-2-hydroxyethyl)-N-(4-fluorophenyl)piperidine-1-carboxamide], the IC50 in assay [1], in assay [2], in assay [3] and in assay [4] was 0.0001 to 10 µM throughout.

Take `O=C(Nc1cccc(F)c1)N1CCC(C(F)(F)C(O)c2cc(Cl)cc3cn[nH]c23)CC1` (stereo not shown) [Compound P-0152, 4-(2-(5-chloro-1H-indazol-7-yl)-1,1-difluoro-2-hydroxyethyl)-N-(3-fluorophenyl)piperidine-1-carboxamide]: the 50% inhibitory concentration (IC50) in assay [1], in assay [2], in assay [3] and in assay [4] was 0.0001 to 10 µM in each case.

In the case of `O=C(Nc1ccc(C(F)(F)F)cc1)N1CCC(C(F)(F)C(O)c2cc(Cl)cc3cn[nH]c23)CC1` (stereo not shown) [Compound P-0153, 4-(2-(5-chloro-1H-indazol-7-yl)-1,1-difluoro-2-hydroxyethyl)-N-(4-(trifluoromethyl)phenyl)piperidine-1-carboxamide], the IC50 in assay [1], in assay [2], in assay [3] and in assay [4] was 0.0001 to 10 µM in each case.

Consider `O=C(Nc1cccc(C(F)(F)F)c1)N1CCC(C(F)(F)C(O)c2cc(Cl)cc3cn[nH]c23)CC1` (stereo not shown) [Compound P-0154, 4-(2-(5-chloro-1H-indazol-7-yl)-1,1-difluoro-2-hydroxyethyl)-N-(3-(trifluoromethyl)phenyl)piperidine-1-carboxamide], for which the concentration for half-maximal inhibition (IC50) in assay [1], in assay [2], in assay [3] and in assay [4] was 0.0001 to 10 µM throughout.

Regarding `COC(=O)N1CCC(C2(C(O)c3cc(Cl)cc4cn[nH]c34)CC2)CC1` (stereo not shown) [Compound P-0155, methyl 4-(1-((5-chloro-1H-indazol-7-yl)(hydroxy)methyl)cyclopropyl)piperidine-1-carboxylate], the 50% inhibitory concentration (IC50) in assay [1], in assay [2], in assay [3] and in assay [4] was 0.0001 to 10 µM throughout.

Regarding `NC(=O)N1CCC(C2(C(O)c3cc(Cl)cc4cn[nH]c34)CC2)CC1` (stereo not shown) [Compound P-0156, 4-(1-((5-chloro-1H-indazol-7-yl)(hydroxy)methyl)cyclopropyl)piperidine-1-carboxamide], the IC50 in assay [1], in assay [2], in assay [3] and in assay [4] was 0.0001 to 10 µM each time.

`O=C(Nc1ccc(F)cc1)N1CCC(C2(C(O)c3cc(Cl)cc4cn[nH]c34)CC2)CC1` (stereo not shown) [Compound P-0157, 4-(1-((5-chloro-1H-indazol-7-yl)(hydroxy)methyl)cyclopropyl)-N-(4-fluorophenyl)piperidine-1-carboxamide]: the half-inhibitory concentration (IC50) in assay [1], in assay [2], in assay [3] and in assay [4] was 0.0001 to 10 µM throughout.

With `CS(=O)(=O)N1CCC(C2(C(O)c3cc(Cl)cc4cn[nH]c34)CC2)CC1` (stereo not shown) [Compound P-0158, (5-chloro-1H-indazol-7-yl)(1-(1-(methylsulfonyl)piperidin-4-yl)cyclopropyl)methanol], the 50% inhibitory concentration (IC50) in assay [1], in assay [2], in assay [3] and in assay [4] was 0.0001 to 10 µM throughout.

For `CC(=O)N1CCC(C2(C(O)c3c(F)c(Cl)cc4cn[nH]c34)CC2)CC1` (stereo not drawn) [Compound P-0159, 1-(4-(1-((5-chloro-6-fluoro-1H-indazol-7-yl)(hydroxy)methyl)cyclopropyl)piperidin-1-yl)ethan-l-one], the concentration for half-maximal inhibition (IC50) in assay [1], in assay [2], in assay [3] and in assay [4] was 0.0001 to 10 µM in each case.

As to `COC(=O)N1CCC(C2(C(O)c3c(F)c(Cl)cc4cn[nH]c34)CC2)CC1` (stereo not shown) [Compound P-0160, methyl 4-(1-((5-chloro-6-fluoro-1H-indazol-7-yl)(hydroxy)methyl)cyclopropyl)piperidine-1-carboxylate], the IC50 in assay [1], in assay [2], in assay [3] and in assay [4] was 0.0001 to 10 µM in each case.

For `NC(=O)N1CCC(C2(C(O)c3c(F)c(Cl)cc4cn[nH]c34)CC2)CC1` (stereo not shown) [Compound P-0161, 4-(1-((5-chloro-6-fluoro-1H-indazol-7-yl)(hydroxy)methyl)cyclopropyl)piperidine-1-carboxamide], the IC50 in assay [1], in assay [2], in assay [3] and in assay [4] was 0.0001 to 10 µM throughout.

For the compound `CNC(=O)N1CCC(C2(C(O)c3c(F)c(Cl)cc4cn[nH]c34)CC2)CC1` (stereo not shown) [Compound P-0162, 4-(1-((5-chloro-6-fluoro-1H-indazol-7-yl)(hydroxy)methyl)cyclopropyl)-N-methylpiperidine-1-carboxamide], the concentration for half-maximal inhibition (IC50) in assay [1], in assay [2], in assay [3] and in assay [4] was 0.0001 to 10 µM each time.

Regarding `O=C(Nc1ccc(F)cc1)N1CCC(C2(C(O)c3c(F)c(Cl)cc4cn[nH]c34)CC2)CC1` (stereo not shown) [Compound P-0164, 4-(1-((5-chloro-6-fluoro-1H-indazol-7-yl)(hydroxy)methyl)cyclopropyl)-N-(4-fluorophenyl)piperidine-1-carboxamide], the concentration for half-maximal inhibition (IC50) in assay [1], in assay [2], in assay [3] and in assay [4] was 0.0001 to 10 µM each time.

For the compound `CS(=O)(=O)N1CCC(C2(C(O)c3c(F)c(Cl)cc4cn[nH]c34)CC2)CC1` (stereo not shown) [Compound P-0165, (5-chloro-6-fluoro-1H-indazol-7-yl)(1-(1-(methylsulfonyl)piperidin-4-yl)cyclopropyl)methanol], the IC50 in assay [1], in assay [2], in assay [3] and in assay [4] was 0.0001 to 10 µM throughout.

Turning to `Nc1nc(C(=O)N2CCC(C3(C(O)c4cc(Cl)cc5cn[nH]c45)CC3)CC2)cs1` (stereo not shown) [Compound P-0166, (2-aminothiazol-4-yl)(4-(1-((5-chloro-1H-indazol-7-yl)(hydroxy)methyl)cyclopropyl)piperidin-1-yl)methanone], the half-maximal inhibitory concentration (IC50) in assay [1], in assay [2], in assay [3] and in assay [4] was 0.0001 to 10 µM in each case.

As for `CC(C)(C1CCN(C(=O)Nc2ccc(F)cc2)CC1)C(O)c1cc(Cl)cc2cn[nH]c12` (stereo not shown) [Compound P-0167, 4-(1-(5-chloro-1H-indazol-7-yl)-1-hydroxy-2-methylpropan-2-yl)-N-(4-fluorophenyl)piperidine-1-carboxamide], the IC50 in assay [1], in assay [2], in assay [3] and in assay [4] was 0.0001 to 10 µM each time.

As for `CC(C)(C1CCN(C(=O)Nc2ccc(C#N)cc2)CC1)C(O)c1cc(Cl)cc2cn[nH]c12` (stereo not shown) [Compound P-0168, 4-(1-(5-chloro-1H-indazol-7-yl)-1-hydroxy-2-methylpropan-2-yl)-N-(4-cyanophenyl)piperidine-1-carboxamide], the half-inhibitory concentration (IC50) in assay [1], in assay [2], in assay [3] and in assay [4] was 0.0001 to 10 µM in each case.

Turning to `CNC(=O)N1CCC(C(C)(C)C(O)c2cc(Cl)cc3[nH]ncc23)CC1` (stereo not shown) [Compound P-0169, 4-(1-(6-chloro-1H-indazol-4-yl)-1-hydroxy-2-methylpropan-2-yl)-N-methylpiperidine-1-carboxamide], the IC50 in assay [1], in assay [2], in assay [3] and in assay [4] was 0.0001 to 10 µM in each case.

Take `CCC(=O)NC(C)(C)CC(O)c1cc(Cl)cc2cn[nH]c12` (stereo not shown) [Compound P-0170, N-(4-(5-chloro-1H-indazol-7-yl)-4-hydroxy-2-methylbutan-2-yl)propionamide]: the half-maximal inhibitory concentration (IC50) in assay [1] was 0.0001 to 10 µM; in assay [2] it was 0.0001 to 10 µM; in assay [3], > 10 µM; in assay [4] it was > 10 µM.

Take `CC(C)(C1CCN(S(C)(=O)=O)CC1)C(O)c1cc(Cl)cc2[nH]ncc12` (stereo not shown) [Compound P-0171, 1-(6-chloro-1H-indazol-4-yl)-2-methyl-2-(1-(methylsulfonyl)piperidin-4-yl)propan-1-ol]: the IC50 in assay [1] was 0.0001 to 10 µM; in assay [2] it was 0.0001 to 10 µM; in assay [3] it was > 10 µM; in assay [4], 0.0001 to 10 µM.

Take `CC(=O)N1CCC(C(C)(C)C(O)c2cc(Cl)cc3[nH]ncc23)CC1` (stereo not shown) [Compound P-0172, 1-(4-(1-(6-chloro-1H-indazol-4-yl)-1-hydroxy-2-methylpropan-2-yl)piperidin-1-yl)ethan-1-one]: the IC50 in assay [1], in assay [2], in assay [3] and in assay [4] was 0.0001 to 10 µM each time.

Turning to `OC(c1cc(Cl)cc2[nH]ncc12)C1CCCCC1` (stereo not shown) [Compound P-0173, (6-chloro-1H-indazol-4-yl)(cyclohexyl)methanol], the 50% inhibitory concentration (IC50) was 0.0001 to 10 µM in assay [1], 0.0001 to 10 µM in assay [2], > 10 µM in assay [3] and 0.0001 to 10 µM in assay [4].
